The source made the active and inactive calls. The calls are words filed in the database; no cut-off is given here. Peptide text beside a SMILES is read from it. * marks the point of attachment. X1 = CC(=O)N[C@H]1[C@H](O[C@H]2[C@@H](O)[C@H](O)[C@@H](CO)O[C@@H]2*)O[C@H](CO)[C@@H](O[C@@H]2O[C@H](CO)[C@H](O)[C@H](O[C@]3(C(=O)O)C[C@H](O)[C@@H](NC(C)=O)[C@H]([C@H](O)[C@H](O)CO)O3)[C@H]2O)[C@@H]1O; X2 = CC(=O)N[C@H]1[C@H](O[C@H]2[C@@H](O)[C@H](O)[C@@H](CO)O[C@@H]2*)O[C@H](CO)[C@@H](O[C@@H]2O[C@H](CO)[C@H](O)[C@H](O)[C@H]2O)[C@@H]1O; GlcNAc(β1-2)αMan = CC(=O)N[C@H]1[C@H](O[C@H]2[C@@H](O)[C@H](O)[C@@H](CO)O[C@@H]2*)O[C@H](CO)[C@@H](O)[C@@H]1O; αMan = OC[C@H]1O[C@H](*)[C@@H](O)[C@@H](O)[C@@H]1O; Hexanoyl(5-oxo) = CC(=O)CCCC(=O)*
Columns and labels:
Canavalia ensiformis = experiment: Binding affinity to biotin-labeled Canavalia ensiformis agglutinin in pH 7.4 Tris buffer by fluorescence microarray method
Homo sapiens [1] = species: Homo sapiens; experiment: Binding affinity to biotin-labeled human recombinant laminin-2 at 10 ug/ml in pH 7.4 Tris buffer by fluorescence microarray method
Triticum aestivum = experiment: Binding affinity to biotin-labeled Wheat germ agglutinin in pH 7.4 Tris buffer by fluorescence microarray method
[2] = target: Laminin subunit alpha-1 (Homo sapiens) (UniProt P25391); experiment: Binding affinity to biotin-labeled human recombinant laminin-1 at 10 ug/ml in pH 5.6 MES buffer by fluorescence microarray method
Chain of Laminin subunit alpha-1 (Homo sapiens) (P25391 whole entry): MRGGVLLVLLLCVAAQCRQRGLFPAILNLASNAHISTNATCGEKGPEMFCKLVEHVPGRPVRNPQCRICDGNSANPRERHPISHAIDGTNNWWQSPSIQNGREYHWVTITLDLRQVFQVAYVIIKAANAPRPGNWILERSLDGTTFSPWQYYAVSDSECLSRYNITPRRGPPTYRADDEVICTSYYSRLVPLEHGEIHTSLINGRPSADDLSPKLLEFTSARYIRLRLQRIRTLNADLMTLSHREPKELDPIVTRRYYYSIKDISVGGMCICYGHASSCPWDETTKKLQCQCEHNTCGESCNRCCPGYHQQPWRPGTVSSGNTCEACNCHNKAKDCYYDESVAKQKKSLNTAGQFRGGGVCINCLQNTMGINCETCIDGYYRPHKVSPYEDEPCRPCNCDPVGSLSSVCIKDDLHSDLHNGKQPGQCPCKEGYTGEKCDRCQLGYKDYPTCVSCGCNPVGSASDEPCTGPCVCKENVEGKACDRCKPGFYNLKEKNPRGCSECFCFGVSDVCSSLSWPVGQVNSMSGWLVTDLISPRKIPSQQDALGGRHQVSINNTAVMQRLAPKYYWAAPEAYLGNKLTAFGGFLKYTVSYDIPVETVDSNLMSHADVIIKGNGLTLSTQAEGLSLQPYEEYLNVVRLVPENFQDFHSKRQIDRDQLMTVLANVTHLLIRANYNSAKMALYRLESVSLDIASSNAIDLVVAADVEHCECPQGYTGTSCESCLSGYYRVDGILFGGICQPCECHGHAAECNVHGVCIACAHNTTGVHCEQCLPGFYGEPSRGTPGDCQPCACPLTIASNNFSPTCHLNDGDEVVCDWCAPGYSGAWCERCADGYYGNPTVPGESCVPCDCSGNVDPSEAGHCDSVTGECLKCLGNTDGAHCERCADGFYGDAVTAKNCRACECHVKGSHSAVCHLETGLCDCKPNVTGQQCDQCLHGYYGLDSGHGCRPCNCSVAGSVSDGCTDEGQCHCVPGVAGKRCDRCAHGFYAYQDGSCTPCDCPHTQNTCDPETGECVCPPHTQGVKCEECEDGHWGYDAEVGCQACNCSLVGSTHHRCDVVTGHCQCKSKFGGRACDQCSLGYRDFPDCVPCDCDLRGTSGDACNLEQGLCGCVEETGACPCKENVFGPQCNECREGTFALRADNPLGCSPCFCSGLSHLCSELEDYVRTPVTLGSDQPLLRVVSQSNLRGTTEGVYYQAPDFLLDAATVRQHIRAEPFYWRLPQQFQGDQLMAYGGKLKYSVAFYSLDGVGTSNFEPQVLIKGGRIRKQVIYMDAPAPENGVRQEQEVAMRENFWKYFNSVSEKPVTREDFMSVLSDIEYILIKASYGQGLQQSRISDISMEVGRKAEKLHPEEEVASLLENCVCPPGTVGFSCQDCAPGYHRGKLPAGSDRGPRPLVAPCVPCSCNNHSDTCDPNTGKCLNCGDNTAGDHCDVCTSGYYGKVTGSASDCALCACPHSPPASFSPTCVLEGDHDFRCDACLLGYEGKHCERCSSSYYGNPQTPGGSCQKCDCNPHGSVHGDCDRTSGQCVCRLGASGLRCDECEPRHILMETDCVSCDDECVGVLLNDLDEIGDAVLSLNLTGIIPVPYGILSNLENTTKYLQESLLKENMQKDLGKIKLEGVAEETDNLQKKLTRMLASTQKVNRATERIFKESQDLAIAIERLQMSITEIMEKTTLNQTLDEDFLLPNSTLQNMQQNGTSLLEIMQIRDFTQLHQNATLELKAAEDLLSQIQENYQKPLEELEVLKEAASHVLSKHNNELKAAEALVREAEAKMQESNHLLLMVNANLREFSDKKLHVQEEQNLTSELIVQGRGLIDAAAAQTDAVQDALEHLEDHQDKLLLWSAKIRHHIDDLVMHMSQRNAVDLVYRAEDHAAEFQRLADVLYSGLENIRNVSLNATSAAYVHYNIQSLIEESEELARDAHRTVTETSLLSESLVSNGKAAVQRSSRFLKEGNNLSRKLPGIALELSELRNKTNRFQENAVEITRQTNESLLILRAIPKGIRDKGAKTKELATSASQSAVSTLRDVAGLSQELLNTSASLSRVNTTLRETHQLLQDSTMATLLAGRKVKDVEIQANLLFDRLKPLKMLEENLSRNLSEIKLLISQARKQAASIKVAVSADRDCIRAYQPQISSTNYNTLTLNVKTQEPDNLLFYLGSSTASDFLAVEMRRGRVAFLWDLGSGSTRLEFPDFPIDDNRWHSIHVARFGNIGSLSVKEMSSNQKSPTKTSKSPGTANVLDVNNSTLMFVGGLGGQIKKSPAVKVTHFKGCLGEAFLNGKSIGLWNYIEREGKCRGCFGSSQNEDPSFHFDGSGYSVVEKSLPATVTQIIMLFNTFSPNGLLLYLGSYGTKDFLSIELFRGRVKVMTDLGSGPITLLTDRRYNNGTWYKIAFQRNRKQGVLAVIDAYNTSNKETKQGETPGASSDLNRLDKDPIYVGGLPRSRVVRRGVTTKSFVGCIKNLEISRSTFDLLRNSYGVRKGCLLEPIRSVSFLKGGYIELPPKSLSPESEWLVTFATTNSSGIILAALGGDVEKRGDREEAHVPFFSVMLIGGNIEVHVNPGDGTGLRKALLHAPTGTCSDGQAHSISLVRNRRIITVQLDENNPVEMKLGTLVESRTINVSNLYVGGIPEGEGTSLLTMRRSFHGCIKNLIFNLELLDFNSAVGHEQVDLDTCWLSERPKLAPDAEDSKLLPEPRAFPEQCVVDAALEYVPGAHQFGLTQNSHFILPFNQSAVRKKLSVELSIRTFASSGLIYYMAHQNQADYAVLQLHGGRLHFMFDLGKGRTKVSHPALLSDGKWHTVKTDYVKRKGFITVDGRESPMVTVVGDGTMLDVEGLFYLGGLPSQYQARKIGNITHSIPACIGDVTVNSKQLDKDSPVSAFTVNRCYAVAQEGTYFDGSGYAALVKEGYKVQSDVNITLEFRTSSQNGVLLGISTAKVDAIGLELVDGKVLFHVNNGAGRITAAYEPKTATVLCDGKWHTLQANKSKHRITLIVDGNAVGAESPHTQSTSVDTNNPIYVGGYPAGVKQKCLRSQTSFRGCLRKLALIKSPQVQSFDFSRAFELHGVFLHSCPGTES

Erythrina crista-galli = experiment: Binding affinity to biotin-labeled Erythrina crista-galli agglutinin in pH 7.4 Tris buffer by fluorescence microarray method
Homo sapiens [3] = species: Homo sapiens; experiment: Binding affinity to biotin-labeled human recombinant laminin-2 at 10 ug/ml in 5.6 MES buffer by fluorescence microarray method
[4] = target: Lactotransferrin (Homo sapiens) (UniProt P02788); experiment: Binding affinity to biotin-labeled lactoferrin (unknown origin) at 10 ug/ml in pH 7.4 Tris buffer by fluorescence microarray method
Chain of Lactotransferrin (Homo sapiens) (P02788 whole entry): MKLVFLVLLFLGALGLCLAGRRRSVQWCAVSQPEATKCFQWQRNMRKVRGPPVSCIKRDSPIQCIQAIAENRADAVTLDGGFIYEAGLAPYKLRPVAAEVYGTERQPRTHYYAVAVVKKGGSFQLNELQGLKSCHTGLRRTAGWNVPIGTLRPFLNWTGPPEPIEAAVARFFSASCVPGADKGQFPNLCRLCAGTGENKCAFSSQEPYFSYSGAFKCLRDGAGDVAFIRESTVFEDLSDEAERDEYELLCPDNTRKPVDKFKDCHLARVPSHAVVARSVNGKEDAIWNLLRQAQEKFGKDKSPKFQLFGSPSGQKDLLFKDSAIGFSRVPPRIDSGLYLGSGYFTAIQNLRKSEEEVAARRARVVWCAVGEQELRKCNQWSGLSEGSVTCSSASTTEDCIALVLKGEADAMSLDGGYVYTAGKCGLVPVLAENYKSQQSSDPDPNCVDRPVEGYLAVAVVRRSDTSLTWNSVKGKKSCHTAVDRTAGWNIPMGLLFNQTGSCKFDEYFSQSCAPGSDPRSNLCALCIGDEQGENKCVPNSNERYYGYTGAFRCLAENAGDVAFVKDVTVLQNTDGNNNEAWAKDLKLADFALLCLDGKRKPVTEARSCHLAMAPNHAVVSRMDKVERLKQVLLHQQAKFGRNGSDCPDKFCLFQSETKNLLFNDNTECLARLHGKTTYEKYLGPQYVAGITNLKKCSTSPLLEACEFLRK

[5] = Binding affinity to biotin-labeled Agaricus bisporus agglutinin in pH 7.4 Tris buffer by fluorescence microarray method
Datura stramonium = experiment: Binding affinity to biotin-labeled Datura stramonium agglutinin in pH 7.4 Tris buffer by fluorescence microarray method
[6] = test system: Sambucus racemosa subsp. sieboldiana; experiment: Binding affinity to biotin-labeled Sambucus sieboldiana agglutinin in pH 7.4 Tris buffer by fluorescence microarray method
Arachis hypogaea = experiment: Binding affinity to biotin-labeled Arachis hypogaea agglutinin in pH 7.4 Tris buffer by fluorescence microarray method
[7] = target: Laminin subunit alpha-1 (Homo sapiens) (UniProt P25391); experiment: Binding affinity to biotin-labeled human recombinant laminin-1 at 10 ug/ml in pH 7.4 Tris buffer by fluorescence microarray method
Maackia amurensis = experiment: Binding affinity to biotin-labeled Maackia amurensis agglutinin in pH 7.4 Tris buffer by fluorescence microarray method
[8] = target: Lactotransferrin (Homo sapiens) (UniProt P02788); experiment: Binding affinity to biotin-labeled lactoferrin (unknown origin) at 10 ug/ml in pH 5.6 MES buffer by fluorescence microarray method

Activity (Canavalia ensiformis) | Activity (Homo sapiens [1]) | Activity (Triticum aestivum) | Activity [2] | Activity (Erythrina crista-galli) | Activity (Homo sapiens [3]) | Activity [4] | Activity [5] | Activity (Datura stramonium) | Activity [6] | Activity (Arachis hypogaea) | Activity [7] | Activity (Maackia amurensis) | Activity [8] | SMILES
Active | inactive | Active | Active | Active | Active | inactive | Active | inactive | Active | Active | Active | inactive | Active | CC[C@H](C)[C@H](NC(=O)[C@H](C)NC(=O)CNC(=O)[C@H](CCCNC(=N)N)NC(=O)[C@@H](NC(=O)CCCC(C)=O)[C@@H](C)O)C(=O)N[C@H](C(=O)N[C@@H](CCC(N)=O)C(=O)N[C@H](C(=O)N1CCC[C@H]1C(=O)N[C@H](C(=O)N[C@@H](CC(C)C)C(=O)NCC(=O)N1CCC[C@H]1C(=O)N[C@H](C(=O)N[C@@H](CCC(N)=O)C(=O)N1CCC[C@H]1C(=O)N[C@H](C(=O)N[C@@H](CCCNC(=N)N)C(=O)N[C@H](C(N)=O)C(C)C)[C@@H](C)O[C@H]1O[C@H](CO)[C@@H](O)[C@H](O)[C@@H]1O[C@@H]1O[C@H](CO)[C@@H](O[C@@H]2O[C@H](CO)[C@H](O)[C@H](O)[C@H]2O)[C@H](O)[C@H]1NC(C)=O)[C@@H](C)CC)[C@@H](C)O[C@H]1O[C@H](CO)[C@@H](O)[C@H](O)[C@@H]1O[C@@H]1O[C@H](CO)[C@@H](O[C@@H]2O[C@H](CO)[C@H](O)[C@H](O[C@]3(C(=O)O)C[C@H](O)[C@@H](NC(C)=O)[C@H]([C@H](O)[C@H](O)CO)O3)[C@H]2O)[C@H](O)[C@H]1NC(C)=O)[C@@H](C)O)[C@@H](C)CC ({Hexanoyl(5-oxo)}-TRGAIIQTPT(X1)LGPIQPT(X2)RV-NH2)
Active | inactive | Active | Active | Active | Active | inactive | Active | inactive | Active | Active | Active | inactive | Active | CC[C@H](C)[C@H](NC(=O)[C@H](C)NC(=O)CNC(=O)[C@H](CCCNC(=N)N)NC(=O)[C@@H](NC(=O)CCCC(C)=O)[C@@H](C)O)C(=O)N[C@H](C(=O)N[C@@H](CCC(N)=O)C(=O)N[C@H](C(=O)N1CCC[C@H]1C(=O)N[C@H](C(=O)N[C@@H](CC(C)C)C(=O)NCC(=O)N1CCC[C@H]1C(=O)N[C@H](C(=O)N[C@@H](CCC(N)=O)C(=O)N1CCC[C@H]1C(=O)N[C@H](C(=O)N[C@@H](CCCNC(=N)N)C(=O)N[C@H](C(N)=O)C(C)C)[C@@H](C)O[C@H]1O[C@H](CO)[C@@H](O)[C@H](O)[C@@H]1O)[C@@H](C)CC)[C@@H](C)O[C@H]1O[C@H](CO)[C@@H](O)[C@H](O)[C@@H]1O[C@@H]1O[C@H](CO)[C@@H](O[C@@H]2O[C@H](CO)[C@H](O)[C@H](O[C@]3(C(=O)O)C[C@H](O)[C@@H](NC(C)=O)[C@H]([C@H](O)[C@H](O)CO)O3)[C@H]2O)[C@H](O)[C@H]1NC(C)=O)[C@@H](C)O)[C@@H](C)CC ({Hexanoyl(5-oxo)}-TRGAIIQTPT(X1)LGPIQPT(αMan)RV-NH2)
Active | inactive | Active | Active | Active | Active | inactive | Active | inactive | Active | Active | Active | inactive | Active | CC[C@H](C)[C@H](NC(=O)[C@H](C)NC(=O)CNC(=O)[C@H](CCCNC(=N)N)NC(=O)[C@@H](NC(=O)CCCC(C)=O)[C@@H](C)O)C(=O)N[C@H](C(=O)N[C@@H](CCC(N)=O)C(=O)N[C@H](C(=O)N1CCC[C@H]1C(=O)N[C@H](C(=O)N[C@@H](CC(C)C)C(=O)NCC(=O)N1CCC[C@H]1C(=O)N[C@H](C(=O)N[C@@H](CCC(N)=O)C(=O)N1CCC[C@H]1C(=O)N[C@H](C(=O)N[C@@H](CCCNC(=N)N)C(=O)N[C@H](C(N)=O)C(C)C)[C@@H](C)O)[C@@H](C)CC)[C@@H](C)O[C@H]1O[C@H](CO)[C@@H](O)[C@H](O)[C@@H]1O[C@@H]1O[C@H](CO)[C@@H](O[C@@H]2O[C@H](CO)[C@H](O)[C@H](O[C@]3(C(=O)O)C[C@H](O)[C@@H](NC(C)=O)[C@H]([C@H](O)[C@H](O)CO)O3)[C@H]2O)[C@H](O)[C@H]1NC(C)=O)[C@@H](C)O)[C@@H](C)CC ({Hexanoyl(5-oxo)}-TRGAIIQTPT(X1)LGPIQPTRV-NH2)
Active | inactive | Active | Active | Active | Active | inactive | Active | inactive | Active | Active | Active | inactive | Active | CC[C@H](C)[C@H](NC(=O)[C@H](C)NC(=O)CNC(=O)[C@H](CCCNC(=N)N)NC(=O)[C@@H](NC(=O)CCCC(C)=O)[C@@H](C)O)C(=O)N[C@H](C(=O)N[C@@H](CCC(N)=O)C(=O)N[C@H](C(=O)N1CCC[C@H]1C(=O)N[C@H](C(=O)N[C@@H](CC(C)C)C(=O)NCC(=O)N1CCC[C@H]1C(=O)N[C@H](C(=O)N[C@@H](CCC(N)=O)C(=O)N1CCC[C@H]1C(=O)N[C@H](C(=O)N[C@@H](CCCNC(=N)N)C(=O)N[C@H](C(N)=O)C(C)C)[C@@H](C)O[C@H]1O[C@H](CO)[C@@H](O)[C@H](O)[C@@H]1O[C@@H]1O[C@H](CO)[C@@H](O)[C@H](O)[C@H]1NC(C)=O)[C@@H](C)CC)[C@@H](C)O[C@H]1O[C@H](CO)[C@@H](O)[C@H](O)[C@@H]1O[C@@H]1O[C@H](CO)[C@@H](O[C@@H]2O[C@H](CO)[C@H](O)[C@H](O)[C@H]2O)[C@H](O)[C@H]1NC(C)=O)[C@@H](C)O)[C@@H](C)CC ({Hexanoyl(5-oxo)}-TRGAIIQTPT(X2)LGPIQPT(GlcNAc(β1-2)αMan)RV-NH2)
Active | inactive | Active | Active | Active | Active | inactive | Active | inactive | Active | Active | Active | inactive | Active | CC[C@H](C)[C@H](NC(=O)[C@H](C)NC(=O)CNC(=O)[C@H](CCCNC(=N)N)NC(=O)[C@@H](NC(=O)CCCC(C)=O)[C@@H](C)O)C(=O)N[C@H](C(=O)N[C@@H](CCC(N)=O)C(=O)N[C@H](C(=O)N1CCC[C@H]1C(=O)N[C@H](C(=O)N[C@@H](CC(C)C)C(=O)NCC(=O)N1CCC[C@H]1C(=O)N[C@H](C(=O)N[C@@H](CCC(N)=O)C(=O)N1CCC[C@H]1C(=O)N[C@H](C(=O)N[C@@H](CCCNC(=N)N)C(=O)N[C@H](C(N)=O)C(C)C)[C@@H](C)O[C@H]1O[C@H](CO)[C@@H](O)[C@H](O)[C@@H]1O[C@@H]1O[C@H](CO)[C@@H](O[C@@H]2O[C@H](CO)[C@H](O)[C@H](O)[C@H]2O)[C@H](O)[C@H]1NC(C)=O)[C@@H](C)CC)[C@@H](C)O[C@H]1O[C@H](CO)[C@@H](O)[C@H](O)[C@@H]1O[C@@H]1O[C@H](CO)[C@@H](O[C@@H]2O[C@H](CO)[C@H](O)[C@H](O)[C@H]2O)[C@H](O)[C@H]1NC(C)=O)[C@@H](C)O)[C@@H](C)CC ({Hexanoyl(5-oxo)}-TRGAIIQTPT(X2)LGPIQPT(X2)RV-NH2)
Active | inactive | Active | Active | Active | Active | inactive | Active | inactive | Active | Active | Active | inactive | Active | CC[C@H](C)[C@H](NC(=O)[C@H](C)NC(=O)CNC(=O)[C@H](CCCNC(=N)N)NC(=O)[C@@H](NC(=O)CCCC(C)=O)[C@@H](C)O)C(=O)N[C@H](C(=O)N[C@@H](CCC(N)=O)C(=O)N[C@H](C(=O)N1CCC[C@H]1C(=O)N[C@H](C(=O)N[C@@H](CC(C)C)C(=O)NCC(=O)N1CCC[C@H]1C(=O)N[C@H](C(=O)N[C@@H](CCC(N)=O)C(=O)N1CCC[C@H]1C(=O)N[C@H](C(=O)N[C@@H](CCCNC(=N)N)C(=O)N[C@H](C(N)=O)C(C)C)[C@@H](C)O)[C@@H](C)CC)[C@@H](C)O[C@H]1O[C@H](CO)[C@@H](O)[C@H](O)[C@@H]1O[C@@H]1O[C@H](CO)[C@@H](O[C@@H]2O[C@H](CO)[C@H](O)[C@H](O)[C@H]2O)[C@H](O)[C@H]1NC(C)=O)[C@@H](C)O)[C@@H](C)CC ({Hexanoyl(5-oxo)}-TRGAIIQTPT(X2)LGPIQPTRV-NH2)

Reference: ChEMBL document CHEMBL4387728, “Synthetic glycopeptides reveal specific binding pattern and conformational change at O-mannosylated position of α-dystroglycan by POMGnT1 catalyzed GlcNAc modification” (Bioorg Med Chem, 2019)
